Source: patent US9193756B2, “Adrenomedullin production enhancer” (National University Corporation ASAHIKAWA MEDICAL COLLEGE, priority 2008, dated 2015)

Columns and labels:
[1] = tested on: distal colon blood flow; assay: Blood flow-increasing effects of components in crude drugs (2): 6-shogaol; assay type: in vivo, rat; conditions: for Rate of increase in VC: into the colon, mg/kg: 6-shogaol 2, ginsenoside Rb1 1
Protocol: Male SD rats (8 to 10 weeks of age) were used. 6-Shogaol was added to a 1% aqueous solution of Tween 80 to obtain a concentration of 0.4 mg/mL, and the resulting solution was used as a test specimen. Furthermore, ginsenoside Rb1 and 6-shogaol were added to a 1% aqueous solution of Tween 80 at concentrations of 0.2 mg/mL and 0.4 mg/mL, respectively, to prepare test specimens. After preliminarily placing an 18 G Surflo indwelling needle inserted through the caecum, 5 mL/kg portions of test specimens which had been kept warm at 37° C. were administered into the colon 0.5 to 1 hour later, by which time baseline blood flow had stabilized. A control group was administered 1% aqueous solution of Tween 80.
(§1) A polyethylene tube with an inner diameter of 0.8 mm was inserted through the left common carotid artery of an anesthetized rat, and the tip was left indwelling in the left ventricle. A tracheal cannula was placed indwelling in the trachea and connected to a respirator (SN-480-7); artificial respiration was then performed at a frequency of 60 RPM. Body temperature was maintained at 37±0.5° C. by a temperature controller (NS-TC10).

[2] = tested on: distal colon blood flow; assay: Blood flow-increasing effects of components in crude drugs (1): hydroxysanshool, ginsenosides; assay type: in vivo, rat; conditions: for Rate of increase in VC: into the colon, mg/kg: H-sanshool 0.3, ginseng 30, ginsenoside Rb1 1, ginsenoside Rg1 1, mean
Protocol: Male SD rats (8 to 10 weeks of age, body weight 240 to 360 g) were used (n=2 to 6). Hydroxy-β-sanshool, ginsenoside Rb1, or ginsenoside Rg1 was added to a 1% aqueous solution of Tween 80 to obtain concentrations of 0.06 mg/mL, 0.2 mg/mL, and 0.2 mg/mL, respectively, and the resulting solutions were used as the respective test specimens for administration of individual crude drug components. Furthermore, test specimens for the administration of hydroxysanshool with a ginseng extract, ginsenoside Rb1, or ginsenoside Rg1 in combination were prepared by adding, to a 1% aqueous solution of Tween 80, hydroxysanshool at a concentration of 0.06 mg/mL, and a powdered ginseng extract, ginsenoside Rb1, or ginsenoside Rg1 at a concentration of 6 mg/mL, 0.2 mg/mL, or 0.2 mg/mL, respectively. After preliminarily placing an 18 G Surflo indwelling needle inserted through the caecum, 5 mL/kg portions of test specimens which had been kept warm at 37° C. were administered into the colon 0.5 to 1 hour later, by which time baseline blood flow had stabilized. A control group was administered a 1% aqueous solution of Tween 80.
as §1, with “(NS-TC10). […] The results of measurement are expressed as the mean value±standard error (S.E.M.). Comparison of effects was performed by one-way analysis of variance (ANOVA), followed by the Scheffe multiple comparison test. A risk rate of 5% or less was employed as the significance level.” for “(NS-TC10).”

SMILES	Rate of increase in VC ([1]; 15 min) [%]	Rate of increase in VC ([1]; 30 min) [%]	Rate of increase in VC ([1]; 45 min) [%]	Rate of increase in VC ([1]; 60 min) [%]	Rate of increase in VC ([1]; 75 min) [%]	Rate of increase in VC ([1]; 90 min) [%]	Blood flow increase (in words) ([1]; Example 5, administration into the colon)	Time of peak increase in blood flow ([1]; after administration into the colon) [min]	Rate of increase in VC ([2]; 15 min) [%]	Rate of increase in VC ([2]; 30 min) [%]	Rate of increase in VC ([2]; 45 min) [%]	Rate of increase in VC ([2]; 60 min) [%]	Rate of increase in VC ([2]; 75 min) [%]	Rate of increase in VC ([2]; 90 min) [%]	Blood flow / VC increase (in words) ([2]; Example 4, administration into the colon)
CCCCC/C=C/C(=O)CCc1ccc(O)c(OC)c1 [6-Shogaol, 6-shogaol]	58.32	61.20	53.07	42.55	46.68	32.92	induced an increase in blood flow	30							
CC(C)=CCC[C@](C)(O[C@@H]1O[C@H](CO[C@@H]2O[C@H](CO)[C@@H](O)[C@H](O)[C@H]2O)[C@@H](O)[C@H](O)[C@H]1O)[C@H]1CC[C@]2(C)[C@@H]1[C@H](O)C[C@@H]1[C@@]3(C)CC[C@H](O[C@@H]4O[C@H](CO)[C@@H](O)[C@H](O)[C@H]4O[C@@H]4O[C@H](CO)[C@@H](O)[C@H](O)[C@H]4O)C(C)(C)[C@@H]3CC[C@]12C [Ginsenoside Rb1, ginsenoside Rb1]									11.72	18.87	60.21	26.20	40.81	19.98	
CC(C)=CCC[C@](C)(O[C@@H]1O[C@H](CO)[C@@H](O)[C@H](O)[C@H]1O)[C@H]1CC[C@]2(C)[C@@H]1[C@H](O)C[C@@H]1[C@@]3(C)CC[C@H](O)C(C)(C)[C@@H]3[C@@H](O[C@@H]3O[C@H](CO)[C@@H](O)[C@H](O)[C@H]3O)C[C@]12C [Ginsenoside Rg1, ginsenoside Rg1]									−10.83	5.84	16.29	10.92	12.25	18.11	
C/C=C/C=C/C=C/CC/C=C/C(=O)NCC(C)(C)O [H-sanshool, Hydroxy-β-sanshool]									3.89	5.79	2.09	9.46	8.58	4.19	did not increase blood flow
